Data: ChEMBL document CHEMBL5032533, “Design, synthesis and anti-TNBC activity of Azeliragon triazole analogues” (Bioorg Med Chem Lett, 2021)

Test system: SUM149PT
Experiment: Cytotoxicity against human triple negative SUM149PT cells assessed as cell viability measured by MTS assay
Assay type: functional, cell-based

Row | Compound | IC50 [nM]
1 | CCCCc1nc(-c2ccc(OCCCN(CC)CC)cc2)nn1-c1ccc(-c2ccc(C(=O)OCC)cc2)cc1 | 328
2 | CCCCc1nc(-c2ccc(OCCCN(CC)CC)cc2)nn1-c1ccc(-c2ccc(Cl)cc2)cc1 | 220
3 | CCCCc1nc(-c2ccc(OCCCN(CC)CC)cc2)nn1-c1ccc(-c2ccc(OC(F)(F)F)cc2)cc1 | 664
4 | CCCCc1nc(-c2ccc(OCCCN(CC)CC)cc2)nn1-c1ccc(-c2ccc(C)cc2)cc1 | 267
5 | CCCCc1nc(-c2ccc(OCCCN(CC)CC)cc2)nn1-c1ccc(-c2ccc(C#N)cc2)cc1 | 5430
6 | CCCCc1nc(-c2ccc(OCCCN(CC)CC)cc2)nn1-c1ccc(Oc2ccc(Cl)cc2)cc1 | 6300
7 | CCCCOc1ccc(-c2nc(CCCC)n(-c3ccc(Oc4ccc(Cl)cc4)cc3)n2)cc1 | 16000
8 | CCCCc1nc(-c2ccc(OCCCN(CC)CC)cc2)nn1-c1ccc(Oc2ccccc2)cc1 | 538
9 | CCCCc1nc(-c2ccc(OCCOCC)cc2)nn1-c1ccc(Oc2ccc(Cl)cc2)cc1 | 18600
10 | CCCCc1nc(-c2ccc(OCCCN(CC)CC)cc2)nn1-c1ccc(-c2ccnn2C)cc1 | 665
11 | CCCCc1nc(-c2ccc(OCCCN(CC)CC)cc2)nn1-c1ccc(-c2ccc(OC)cc2)cc1 | 588
12 | CCN(CC)CCCOc1ccc(-c2nc(CCOC)n(-c3ccc(Oc4ccc(Cl)cc4)cc3)n2)cc1 | 12500
13 | CCCCc1nc(-c2ccc(OCCC)cc2)nn1-c1ccc(Oc2ccccc2)cc1 | 13700
14 | CCCCc1nc(-c2ccc(OCCN3CCCCC3)cc2)nn1-c1ccc(Oc2ccc(Cl)cc2)cc1 | 5680
15 | CCCCc1nc(-c2ccc(OCCCN(CC)CC)cc2)nn1-c1ccc(-c2ccc(OC)cc2OC)cc1 | 487
16 | CCCCc1nc(-c2ccc(OCCCN(CC)CC)cc2)cn1-c1ccc(Oc2ccc(Cl)cc2)cc1 [AZELIRAGON] | 5290
